The text below walks through data of ChEMBL document CHEMBL1777728, “Amino-caprolactam γ-secretase inhibitors showing potential for the treatment of Alzheimer's disease” (Bioorg Med Chem Lett, 2011).

The nature of series [1]: Inhibition of gamma-secretase-mediated APP cleavage assessed as amyloid beta40 level after 2 hrs by ELISA. For orientation: In an ELISA, binding on a coated surface is turned into a signal by an enzyme label.
Series [2] in a line: Inhibition of gamma-secretase-mediated notch cleavage after 2 hrs by ELISA.
Series [3] in a line: Selectivity ratio of IC50 for gamma-secretase-mediated notch cleavage to IC50 gamma-secretase-mediated APP cleavage.
The test system of another series is MDCK. Nature of the series: Efflux ratio of permeability from basolateral to apical over apical to basolateral side in human MDR1 transfected MDCK cells at 5 uM after 120 mins by LC-MS/MS analysis. It counts as ADME, cell-based, Canis lupus familiaris. To be noted: dog, 2 h.
Series [4] has as its system Mus musculus. Nature of the series: Neuroprotective activity in wild type FVB mouse brain assessed as reduction of amyloid beta x-40 level at 100 mg/kg, ip. To be noted: route intraperitoneal. It counts as functional.
Series [5] relates to Mus musculus. The series is described as follows: Neuroprotective activity in P-gp KO (MDR1 ab-/-) mouse brain assessed as reduction of amyloid beta x-40 level at 100 mg/kg, ip. To be noted: route intraperitoneal. It counts as functional.

For orientation: IC50 means the concentration at which inhibition is half-maximal. For the molecule `O=C1NCCCC[C@H]1N(CC1CCc2ccccc2O1)S(=O)(=O)c1ccc(Cl)cc1` (some centres not stated), the IC50 came out at 131 nM in series [1] and 196 nM in series [2]. For the same molecule, the Ratio IC50 in series [3] turned out to be 1.
In the case of `O=C1NCCCC[C@H]1N(Cc1ccc2c(c1)OCCO2)S(=O)(=O)c1ccc(Cl)cc1`, the concentration for half-maximal inhibition (IC50) is 9 nM in series [1] and 152 nM in series [2]. Moreover, the Ratio IC50 in series [3] came to 17. In addition, in the series on MDCK, the Ratio came to 2.7.
As to `CCCNC(=O)c1ccc(CN([C@@H]2CCCCNC2=O)S(=O)(=O)c2ccc(Cl)cc2)cc1`, the half-inhibitory concentration (IC50) amounted to 45 nM in series [1] and 26 nM in series [2]. Besides, in series [3], the Ratio IC50 turned out to be 0.5.
Regarding `COc1ccc(CN([C@@H]2CCCCNC2=O)S(=O)(=O)c2ccc(Cl)cc2)cc1OC`, the IC50 in series [1] amounted to 170 nM.
Turning to `Cc1ccc(CN([C@@H]2CCCCNC2=O)S(=O)(=O)c2ccc(Cl)cc2)o1`, the IC50 in series [1] stood at 432 nM; in series [2], 601 nM. The Ratio IC50 in series [3] was determined as 1.
As for `CC(C)(C)CNC(=O)c1ccc(CN([C@@H]2CCCCNC2=O)S(=O)(=O)c2ccc(Cl)cc2)cc1`, the IC50 in series [1] was 30 nM; in series [2], 55 nM. In series [3], the Ratio IC50 worked out at 2.
Consider `O=C(NC1CC1)c1ccc(CN([C@@H]2CCCCNC2=O)S(=O)(=O)c2ccc(Cl)cc2)cc1`, for which the IC50 in series [1] came out at 31 nM; in series [2], 65 nM. Besides, the Ratio IC50 in series [3] was determined as 2.
With `COc1cc(CN([C@@H]2CCCCNC2=O)S(=O)(=O)c2ccc(Cl)cc2)ccc1OCCc1scnc1C`, the IC50 in series [1] is 170 nM.
In the case of `Cn1c(CN([C@@H]2CCCCNC2=O)S(=O)(=O)c2ccc(Cl)cc2)cc2ccccc21`, the figures for the IC50 in series [1] and in series [2] were 565 nM and 2790 nM, respectively. Further, in series [3], the Ratio IC50 came to 5.
On to `Cn1nnc2cc(CN([C@@H]3CCCCNC3=O)S(=O)(=O)c3ccc(Cl)cc3)ccc21`, for which the half-maximal inhibitory concentration (IC50) in series [1] is 12 nM.
`O=C(NCc1ccccc1)c1ccc(CN([C@@H]2CCCCNC2=O)S(=O)(=O)c2ccc(Cl)cc2)cc1`: the IC50 in series [1] amounted to 9 nM; in series [2], 16 nM. In addition, the Ratio IC50 in series [3] is 2.
For the molecule `O=C1NCCCC[C@H]1N(Cc1cnc2ccccc2c1)S(=O)(=O)c1ccc(Cl)cc1`, the results for the IC50 in series [1] and in series [2] were 52 nM and 126 nM, respectively. The Ratio IC50 in series [3] was 2.
As to `O=C1NCCCC[C@H]1N(Cc1csnn1)S(=O)(=O)c1ccc(Cl)cc1`, the results for the IC50 in series [1] and in series [2] were 758 nM and 2120 nM, respectively. The Ratio IC50 in series [3] came to 3.
Turning to `COc1cc(CN(C2CCCCNC2=O)S(=O)(=O)c2ccc(Cl)cc2)ccc1OCCc1scnc1C` (configuration not stated), the IC50 in series [1] is 1700 nM.
As for `O=C1NCCCC[C@H]1N(Cc1cc2ccccc2o1)S(=O)(=O)c1ccc(Cl)cc1`, the figures for the IC50 in series [1] and in series [2] were 12 nM and 30 nM, respectively. Further, the Ratio IC50 in series [3] turned out to be 2.
With `Cc1ccc(CN([C@@H]2CCCCNC2=O)S(=O)(=O)c2ccc(Cl)cc2)s1`, in series [1], the IC50 amounted to 81 nM.
On to `O=C1NCCCC[C@H]1N(Cc1nccs1)S(=O)(=O)c1ccc(Cl)cc1`, for which the IC50 in series [1] and in series [2] was 1830 nM each time. In addition, the Ratio IC50 in series [3] is 1.
Consider `COc1cc(CN([C@H]2CCCCNC2=O)S(=O)(=O)c2ccc(Cl)cc2)ccc1OCCc1scnc1C`, for which, in series [1], the IC50 is 2000 nM.
As for `O=C1NCCCC[C@H]1N(Cc1cnc2ncccc2c1)S(=O)(=O)c1ccc(Cl)cc1`, the IC50 came to 290 nM in series [1] and 1050 nM in series [2]. Also, the Ratio IC50 in series [3] was found to be 4.
As for `Cc1cccc(CN([C@@H]2CCCCNC2=O)S(=O)(=O)c2ccc(Cl)cc2)n1`, the IC50 in series [1] was 5360 nM; in series [2], 9320 nM. Further, the Ratio IC50 in series [3] was found to be 2.
What is called inhibition in vivo is the share of the control response that was lost under treatment. In the case of `O=C1NCCCC[C@H]1N(Cc1ccc2nccnc2c1)S(=O)(=O)c1ccc(Cl)cc1`, the IC50 in series [1] was determined as 15 nM; in series [2], 28 nM. Further, the Ratio IC50 in series [3] was found to be 2. Moreover, the Ratio in the series with MDCK is recorded as 1.8. For the same molecule, the inhibition in vivo at 100 mg/kg came out at 26% in the series with Mus musculus [4] and 61% in the series with Mus musculus [5].
Turning to `O=C1NCCCC[C@H]1N(Cc1ccc2ncccc2c1)S(=O)(=O)c1ccc(Cl)cc1`, the half-maximal inhibitory concentration (IC50) in series [1] came out at 6 nM; in series [2], 4 nM. Also, in series [3], the Ratio IC50 was 0.6. Besides, the Ratio in the series on MDCK came out at 1.8. Moreover, the inhibition in vivo at 100 mg/kg amounted to 20% in the series on Mus musculus [4] and 62% with Mus musculus [5].
As for `O=C(Nc1ccccc1)c1ccc(CN([C@@H]2CCCCNC2=O)S(=O)(=O)c2ccc(Cl)cc2)cc1`, the IC50 came out at 76 nM in series [1] and 91 nM in series [2]. In addition, the Ratio IC50 in series [3] was 1.
Regarding `O=C1NCCCC[C@H]1N(Cc1cc2ccccc2s1)S(=O)(=O)c1ccc(Cl)cc1`, the IC50 came out at 7 nM in series [1] and 46 nM in series [2]. Moreover, in series [3], the Ratio IC50 amounted to 6.
The like results for `CC(C)NC(=O)c1ccc(CN([C@@H]2CCCCNC2=O)S(=O)(=O)c2ccc(Cl)cc2)cc1` were, in that order, 30 nM, 66 nM and 2.
`O=C1NCCCC[C@H]1N(Cc1ccc2snnc2c1)S(=O)(=O)c1ccc(Cl)cc1`: the IC50 was 8 nM in series [1] and 25 nM in series [2]. Also, the Ratio IC50 in series [3] came to 3. Further, the Ratio in the series on MDCK worked out at 2. Besides, the values for the inhibition in vivo at 100 mg/kg in the series with Mus musculus [4] and in the series with Mus musculus [5] were 32% and 60%, respectively.
On to `O=C(NC1CCCC1)c1ccc(CN([C@@H]2CCCCNC2=O)S(=O)(=O)c2ccc(Cl)cc2)cc1`, for which the IC50 in series [1] worked out at 23 nM; in series [2] it was 14 nM. Besides, the Ratio IC50 in series [3] stood at 0.6.
`O=C1NCCCC[C@H]1N(Cc1ccc2nsnc2c1)S(=O)(=O)c1ccc(Cl)cc1`: the IC50 was 13 nM in series [1] and 39 nM in series [2]. Also, the Ratio IC50 in series [3] was found to be 3. In the series on MDCK, the Ratio was determined as 2.
As for `COC(=O)c1ccc(CN([C@@H]2CCCCNC2=O)S(=O)(=O)c2ccc(Cl)cc2)cc1`, the IC50 in series [1] stood at 3 nM.
As to `O=C(NC1CCC1)c1ccc(CN([C@@H]2CCCCNC2=O)S(=O)(=O)c2ccc(Cl)cc2)cc1`, the IC50 in series [1] came to 23 nM; in series [2], 49 nM. Further, the Ratio IC50 in series [3] worked out at 2.
